#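 Cells were grown in 96-well plates and exposed to each compound for 48 hours at five concentrations; endpoints were interpolated linearly between bracketing concentrations, or set to the highest concentration if not reached. GI50 = concentration required for 50% inhibition of growth.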 Active and inactive are the calls of the source. Cut-off read from the data, not from the text of the source: active = GI50 up to about 1.1 µM and inactive = higher.
# Tests used:
# Experiment in all cases: NCI tumour cell line growth inhibition, 48 h
# [1] = system: A498
# [2] = system: KM12
# [3] = system: NCI-H23
# [4] = system: IGROV-1
# [5] = system: NCI-H226
# [6] = system: MDA-MB-435
# [7] = system: LOX IMVI
# [8] = system: UO-31
# [9] = system: HCT-116
# [10] = system: SW-620
# [11] = system: NCI-H522
# [12] = system: PC-3
# [13] = system: BT-549
# [14] = system: MDA-N
# [15] = system: SN12C
# [16] = system: SF-295
# [17] = system: HOP-62
# [18] = system: MOLT-4
# [19] = system: UACC-257
# [20] = system: OVCAR-4
# [21] = system: HOP-92
# [22] = system: A549
# [23] = system: CAKI-1
# [24] = system: OVCAR-8
# [25] = system: SR
# [26] = system: EKVX
# [27] = system: MDA-MB-231
# [28] = system: Hs-578T
# [29] = system: SF-268
# [30] = system: HCT-15
# [31] = system: OVCAR-3
# [32] = system: T47D
# [33] = system: UACC-62
# [34] = system: MCF7
# [35] = system: RXF 393
# [36] = system: ACHN
# [37] = system: OVCAR-5
# [38] = system: K562
# [39] = system: Malme-3M
# [40] = system: SK-MEL-5
# [41] = system: COLO 205
# [42] = system: M14
# [43] = system: 786-0
# [44] = system: SNB-19
# [45] = system: NCI/ADR-RES
# [46] = system: HL-60
# [47] = system: HT-29
# [48] = system: SK-MEL-28
# [49] = system: SK-MEL-2
# [50] = system: TK-10
# [51] = system: RPMI-8226
# [52] = system: DU-145
# [53] = system: U-251
# [54] = system: SK-OV-3
# [55] = system: NCI-H460
# [56] = system: SF-539
# [57] = system: SNB-75
# [58] = system: CCRF-CEM
# [59] = system: HCC 2998
structure (smiles),measurement,setting,value
O=C1[C@@H]2Cc3c([nH]c4ccccc34)C(C3CCCCC3)N2C(=O)[C@@H]2CCCN12 (some centres undefined),GI50,[1],37.8 µM (inactive)
same,GI50,[2],23.3 µM (inactive)
same,GI50,[3],38.1 µM (inactive)
same,GI50,[4],29.6 µM (inactive)
same,GI50,[5],43.1 µM (inactive)
same,GI50,[6],34.2 µM (inactive)
same,GI50,[7],28.3 µM (inactive)
same,GI50,[8],32.3 µM (inactive)
same,GI50,[9],27.5 µM (inactive)
same,GI50,[10],41.2 µM (inactive)
same,GI50,[11],23 µM (inactive)
same,GI50,[12],22.3 µM (inactive)
same,GI50,[13],30.6 µM (inactive)
same,GI50,[14],30.2 µM (inactive)
same,GI50,[15],26.5 µM (inactive)
same,GI50,[16],21.1 µM (inactive)
same,GI50,[17],31.4 µM (inactive)
same,GI50,[18],23 µM (inactive)
same,GI50,[19],29.2 µM (inactive)
same,GI50,[20],35.2 µM (inactive)
same,GI50,[21],29.6 µM (inactive)
same,GI50,[22],33.1 µM (inactive)
same,GI50,[23],31.7 µM (inactive)
same,GI50,[24],36.7 µM (inactive)
same,GI50,[25],19.9 µM (inactive)
same,GI50,[26],33.5 µM (inactive)
same,GI50,[27],21.1 µM (inactive)
same,GI50,[28],27.9 µM (inactive)
same,GI50,[29],33.5 µM (inactive)
same,GI50,[30],33.4 µM
same,GI50,[31],20.4 µM (inactive)
same,GI50,[32],60 µM (inactive)
same,GI50,[33],17.3 µM (inactive)
same,GI50,[34],30.4 µM (inactive)
same,GI50,[35],29.9 µM (inactive)
same,GI50,[36],28.9 µM (inactive)
same,GI50,[37],37.8 µM (inactive)
same,GI50,[38],37.2 µM (inactive)
same,GI50,[39],18.9 µM (inactive)
same,GI50,[40],17.7 µM (inactive)
same,GI50,[41],21.5 µM (inactive)
same,GI50,[42],37.8 µM (inactive)
same,GI50,[43],27.8 µM (inactive)
same,GI50,[44],39.9 µM (inactive)
same,GI50,[45],22 µM (inactive)
same,GI50,[46],27.3 µM (inactive)
same,GI50,[47],28.5 µM (inactive)
same,GI50,[48],50.2 µM (inactive)
same,GI50,[49],20 µM (inactive)
same,GI50,[50],35.6 µM (inactive)
same,GI50,[51],21.3 µM (inactive)
same,GI50,[52],55.5 µM (inactive)
same,GI50,[53],33.8 µM (inactive)
same,GI50,[54],46.9 µM (inactive)
O=C1Nc2ccc(Br)cc2/C1=N/NC(=S)Nc1ccc([N+](=O)[O-])cc1,GI50,[1],5.56 µM (inactive)
same,GI50,[2],5.94 µM (inactive)
same,GI50,[3],2.55 µM (inactive)
same,GI50,[4],5.08 µM (inactive)
same,GI50,[5],15.9 µM (inactive)
same,GI50,[55],5.47 µM (inactive)
same,GI50,[6],6.41 µM (inactive)
same,GI50,[7],8.81 µM (inactive)
same,GI50,[9],5.35 µM (inactive)
same,GI50,[10],6.81 µM (inactive)
same,GI50,[11],9.79 µM (inactive)
same,GI50,[12],7.13 µM (inactive)
same,GI50,[13],2.28 µM (inactive)
same,GI50,[14],7.98 µM (inactive)
same,GI50,[15],8.02 µM (inactive)
same,GI50,[16],6.08 µM (inactive)
same,GI50,[17],11.4 µM (inactive)
same,GI50,[18],5.31 µM (inactive)
same,GI50,[19],14.4 µM (inactive)
same,GI50,[20],6.11 µM (inactive)
same,GI50,[21],9.77 µM (inactive)
same,GI50,[23],4.06 µM (inactive)
same,GI50,[24],6.37 µM (inactive)
same,GI50,[25],5.05 µM (inactive)
same,GI50,[56],20.2 µM (inactive)
same,GI50,[27],16.7 µM (inactive)
same,GI50,[28],14.2 µM (inactive)
same,GI50,[29],9.04 µM (inactive)
same,GI50,[30],2.69 µM
same,GI50,[31],6.65 µM (inactive)
same,GI50,[32],7.45 µM (inactive)
same,GI50,[33],5.5 µM (inactive)
same,GI50,[34],7.13 µM (inactive)
same,GI50,[35],11.8 µM (inactive)
same,GI50,[36],5.19 µM (inactive)
same,GI50,[37],13.2 µM (inactive)
same,GI50,[38],9.48 µM (inactive)
same,GI50,[39],5.98 µM (inactive)
same,GI50,[40],7.74 µM (inactive)
same,GI50,[41],21.7 µM (inactive)
same,GI50,[57],16 µM (inactive)
same,GI50,[43],8.91 µM (inactive)
same,GI50,[45],2.01 µM (inactive)
same,GI50,[46],1.75 µM (inactive)
same,GI50,[47],7.71 µM (inactive)
same,GI50,[48],11.1 µM (inactive)
same,GI50,[49],13.7 µM (inactive)
same,GI50,[50],14.5 µM (inactive)
same,GI50,[52],11.9 µM (inactive)
same,GI50,[53],7.13 µM (inactive)
same,GI50,[54],12.7 µM (inactive)
CCN(CC)CCNc1ccc2ncn3c4c(OC)ccc(OC)c4c(=O)c1c23,GI50,[1],93.3 µM (inactive)
same,GI50,[2],9.16 µM (inactive)
same,GI50,[3],22.6 µM (inactive)
same,GI50,[4],> 10 µM (inactive)
same,GI50,[5],90.8 µM (inactive)
same,GI50,[55],4.4 µM (inactive)
same,GI50,[6],> 10 µM (inactive)
same,GI50,[8],> 100 µM (inactive)
same,GI50,[9],0.587 µM (active)
same,GI50,[10],0.853 µM (active)
same,GI50,[58],1.22 µM (inactive)
same,GI50,[11],15.7 µM (inactive)
same,GI50,[12],> 10 µM (inactive)
same,GI50,[13],> 10 µM (inactive)
same,GI50,[14],10.8 µM (inactive)
same,GI50,[15],> 10 µM (inactive)
same,GI50,[16],13.3 µM (inactive)
same,GI50,[17],> 100 µM (inactive)
same,GI50,[18],1.45 µM (inactive)
same,GI50,[19],> 100 µM (inactive)
same,GI50,[20],6.11 µM (inactive)
same,GI50,[21],11.2 µM (inactive)
same,GI50,[22],22.5 µM (inactive)
same,GI50,[59],15.3 µM (inactive)
same,GI50,[23],86.5 µM (inactive)
same,GI50,[24],10.8 µM (inactive)
same,GI50,[25],3.72 µM (inactive)
same,GI50,[56],20.8 µM (inactive)
same,GI50,[26],15.3 µM (inactive)
same,GI50,[27],12 µM (inactive)
same,GI50,[28],> 10 µM (inactive)
same,GI50,[29],3.24 µM (inactive)
same,GI50,[30],16 µM
same,GI50,[31],30.3 µM (inactive)
same,GI50,[32],> 100 µM (inactive)
same,GI50,[33],22.6 µM (inactive)
same,GI50,[34],3.57 µM (inactive)
same,GI50,[35],1.71 µM (inactive)
same,GI50,[36],4.1 µM (inactive)
same,GI50,[38],10.4 µM (inactive)
same,GI50,[39],23.8 µM (inactive)
same,GI50,[40],17.2 µM (inactive)
same,GI50,[41],0.841 µM (active)
same,GI50,[42],18.7 µM (inactive)
same,GI50,[57],10.6 µM (inactive)
same,GI50,[43],11.5 µM (inactive)
same,GI50,[44],20 µM (inactive)
same,GI50,[45],5.6 µM (inactive)
same,GI50,[47],> 10 µM (inactive)
same,GI50,[48],21.2 µM (inactive)
same,GI50,[50],> 100 µM (inactive)
same,GI50,[52],12.9 µM (inactive)
same,GI50,[53],15.5 µM (inactive)
same,GI50,[54],19.1 µM (inactive)
